The values below come from patent US20230212191A1, “SPIRO-SULFONIMIDAMIDE DERIVATIVES AS INHIBITORS OF MYELOID CELL LEUKEMIA-1 (MCL-1) PROTEIN” (PRELUDE THERAPEUTICS, INCORPORATED, priority 2020, published 2023).

Read-outs that look alike come from different tables or passages of the source.

Experiment [1] addresses T1, MCL-1 (Homo sapiens, UniProt Q07820).
T1 construct: purchased BPS Bioscience
The experiment is described as follows: Cell free Mcl-1:Bim affinity assay (fluorescence polarization competition). It is filed as binding. The settings on record: 15 nM MCL-1, 5 nM FITC-Bim tracer, 1 hour at room temperature; Ki calc. from IC50 by Nikolovska-Coleska's equation; read-out: BIM_ Ki. The protocol:
Cell Free Mcl-1:Bim Affinity Assay (Mcl-1 Bim)
The binding affinity of each compound was measured via a fluorescence polarization competition assay, in which the compound competes for the same binding site with the ligand, and thus leads to a dose-dependent anisotropy reduction. The tracer ligand utilized was a fluorescein isothiocyanate labelled peptide (FITC-[…]) derived from Bim (GenScript).
The assay was carried out in black half-area 96-well NBS plate (Corning), containing 15 nM of MCL-1 (BPS Bioscience), 5 nM of FITC-Bim and 3-fold serial diluted test compounds in a total volume of 50 μL of assay buffer (20 mM HEPES, 50 mM NaCl, 0.002% Tween 20, 1 mM TCEP, and 1% DMSO). The reaction plate was incubated for 1 hour at room temperature. The change of anisotropy is measured with an Envision multimode plate reader (PerkinElmer) at emission wavelength 535 nm. Fluorescence polarization was calc. in mP unit and the percentage inhibition was calc. by % inhibition=100×(mPDMSO−mP)/(mPDMSO−mPPC), in which mPDMSO is the DMSO control, and mPPC is the positive control. IC50 values were determined from a 10-point dose response curve by fitting the percent inhibition against compound concentration using the GraphPad Prism software. The inhibition constant Ki was subsequently calc. according to the Nikolovska-Coleska's equation (Anal. Biochem., 2004, 332, 261),
where [I]50 is the concentration of the free inhibitor at 50% inhibition, [L]50 is the concentration of the free labeled ligand at 50% inhibition, [P]0 is the concentration of the free protein at 0% inhibition, and Kd is the dissociation constant of the protein-ligand complex.

Experiment [2] concerns H929 cells. The experiment in a line: Cell viability assay (H929 10 FBS). It is filed as cell-based. The settings on record: CellTiter-Glo or ATPlite, read-out: H929_10FBS IC50. The protocol: Cell Viability Assay (H929 10 FBS)
Dispense 10 μL aliquot of prepared H929 cells (1:1 ratio of cells:Trypan Blue (#1450013, Bio-Rad)) onto cell counting slide (#145-0011, Bio-Rad) and obtain cell density and cell viability using cell counter (TC20, Bio-Rad). Remove appropriate volume of resuspended cells from culture flask to accommodate 4000 cells/well @ 10 μL/well. Transfer H929 cells to 50 mL conical (#430290, Corning). Spin down at 1000 rpm for 5 min using tabletop centrifuge (SPINCHRON 15, Beckman). Discard supernatant and resuspend cell pellet in modified RPMI 1640 (#10-040-CV, Corning) cell culture media containing 10% FBS (F2422-500 ML, Sigma), sodium pyruvate (100 mM) (#25-000-CL, Corning), HEPES buffer (1 M) (#25-060-CL, Corning) and glucose (200 g/L) (A24940-01, Gibco) to a cell density of 400,000 cells/mL. Dispense 10 μL of resuspended H929 cells per well in 384-well small volume TC treated plate (#784080, Greiner Bio-one) using standard cassette (#50950372, Thermo Scientific) on Multi-drop Combi (#5840310, Thermo Scientific) in laminar flow cabinet. Dispense compounds onto plates using digital liquid dispenser (D300E, Tecan). Incubate plates in humidified tissue culture incubator @ 37° C. for 24 hours. Add 10 μL of prepared CellTiTer-Glo® detection buffer (G7570, Promega) or ATPlite 1Step detection reagent (#6016731, Perkin Elmer) to each well of 384-well plate using small tube cassette (#24073295, Thermo Scientific) on Combi multi drop, incubate @ RT for 30-60 min. Read plates with microplate reader (PheraStar, BMG Labtech) using 384 well luminescence mode.
(In general: In ATP-based viability assays light output follows the ATP content of the culture.)

T1 sequence (Q07820 whole entry): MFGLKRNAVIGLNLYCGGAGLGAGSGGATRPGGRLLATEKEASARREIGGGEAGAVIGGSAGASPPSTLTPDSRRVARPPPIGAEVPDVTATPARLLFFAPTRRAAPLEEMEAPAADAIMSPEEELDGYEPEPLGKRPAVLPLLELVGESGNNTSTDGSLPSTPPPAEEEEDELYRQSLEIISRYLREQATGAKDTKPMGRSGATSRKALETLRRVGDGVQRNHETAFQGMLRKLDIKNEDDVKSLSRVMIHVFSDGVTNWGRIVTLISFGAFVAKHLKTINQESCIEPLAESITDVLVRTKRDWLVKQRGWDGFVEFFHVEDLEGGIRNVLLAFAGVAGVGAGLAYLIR

A word on the Ki: it is a measure of affinity in units of concentration, obtained from inhibition or displacement. For orientation: IC50 means the midpoint of a concentration-inhibition curve. In the case of `CO[C@H]1/C=C/COC(C)(C)C(=O)N=S(=O)(NC(=O)C2CCOCC2)c2ccc3c(c2)N(C[C@@H]2CC[C@H]21)C[C@@]1(CCCc2cc(Cl)ccc21)CO3` (stereo partly drawn) [Example 11, N-[(3R,6R,7S,8E,22S)-7′-Chloro-7-methoxy-12,12-dimethyl-13,15-dioxospiro[11,20-dioxa-15-thia-1,14-diazatetracyclo[14.7.2.03,6.019,24]pentacosa-8,14,16,18,24-pentaene-22,4′-2,3-dihydro-1H-naphthalene]-15-yl]oxane-4-carboxamide], the Ki in experiment [1] is below 1 nM. The IC50 in experiment [2] (Homo sapiens, NCI-H929, 24 h) is below 100 nM.

On to `COC1C=CCOC(C)(C)C(=O)N=S(=O)(NC(=O)N2CC(O)C2)c2ccc3c(c2)N(CC2CCC21)CC1(CCCc2cc(Cl)ccc21)CO3` (centres unmarked) [29 or 30], for which the Ki in experiment [1] was below 1 nM. The IC50 in experiment [2] (24 hours) was below 100 nM.

Regarding `CO[C@H]1/C=C/COC(C)(C)C(=O)N=S(=O)(NC(=O)c2ccccc2)c2ccc3c(c2)N(C[C@@H]2CC[C@H]21)C[C@@]1(CCCc2cc(Cl)ccc21)CO3` (stereo partly drawn) [Example 12, N-[(3R,6R,7S,8E,22S)-7′-Chloro-7-methoxy-12,12-dimethyl-13,15-dioxospiro[11,20-dioxa-15-thia-1,14-diazatetracyclo[14.7.2.03,6.019,24]pentacosa-8,14,16,18,24-pentaene-22,4′-2,3-dihydro-1H-naphthalene]-15-yl]benzamide], the Ki in experiment [1] is below 1 nM. Further, the IC50 in experiment [2] (Homo sapiens, NCI-H929, 24 h) was 100 to 500 nM.

In the case of `COC1CN(C(=O)NS2(=O)=NC(=O)C(C)(C)OCC=CC(OC)C3CCC3CN3CC4(CCCc5cc(Cl)ccc54)COc4ccc2cc43)C1` (centres unmarked) [31 or 32], the Ki in experiment [1] is below 1 nM. Besides, in experiment [2] (Homo sapiens, NCI-H929, 24 h), the IC50 was below 100 nM.

For the compound `COC1C=CCOC(C)(C)C(=O)N=S(=O)(NC(=O)N2CC(O)C2)c2ccc3c(c2)N(CC2CCC21)CC1(CCCc2cc(Cl)ccc21)CO3` (centres unmarked) [30 or 29], the Ki in experiment [1] was above 1 nM. Also, the IC50 in experiment [2] (24 hours) is above 500 nM.

Take `CO[C@H]1/C=C/COC(C)(C)C(=O)N=S(=O)(NC(=O)c2cn(C)nc2C)c2ccc3c(c2)N(C[C@@H]2CC[C@H]21)C[C@@]1(CCCc2cc(Cl)ccc21)CO3` (stereo partly drawn) [Example 17, N-[(3R,6R,7S,8E,22S)-7′-chloro-7-methoxy-12,12-dimethyl-13,15-dioxospiro[11,20-dioxa-15-thia-1,14-diazatetracyclo[14.7.2.03,6.019,24]pentacosa-8,14,16,18,24-pentaene-22,4′-2,3-dihydro-1H-naphthalene]-15-yl]-1,3-dimethylpyrazole-4-carboxamide]: the Ki in experiment [1] was below 1 nM. The IC50 in experiment [2] (Homo sapiens, NCI-H929, 24 h) is below 100 nM.

For the compound `CC(C)C(=O)NS1(=O)=NC(=O)C(C)(C)OC/C=C/[C@H](OCCN(C)C)[C@@H]2CC[C@H]2CN2C[C@@]3(CCCc4cc(Cl)ccc43)COc3ccc1cc32` (stereo partly drawn) [Example 55, N-[(3R,6R,7S,8E,22S)-7′-Chloro-7-[2-(dimethylamino)ethoxy]-12,12-dimethyl-13,15-dioxospiro[11,20-dioxa-15-thia-1,14-diazatetracyclo[14.7.2.03,6.019,24]pentacosa-8,14,16,18,24-pentaene-22,4′-2,3-dihydro-1H-naphthalene]-15-yl]-2-methylpropanamide], the Ki in experiment [1] is above 1 nM.

For the compound `CO[C@H]1/C=C/COC(C)(C)C(=O)N=S(=O)(NC(=O)NC2CCOCC2)c2ccc3c(c2)N(C[C@@H]2CC[C@H]21)C[C@@]1(CCCc2cc(Cl)ccc21)CO3` (stereo partly drawn) [Example 38, 1-[(3R,6R,7S,8E,22S)-7′-Chloro-7-methoxy-12,12-dimethyl-13,15-dioxospiro[11,20-dioxa-15-thia-1,14-diazatetracyclo[14.7.2.03,6.019,24]pentacosa-8,14,16,18,24-pentaene-22,4′-2,3-dihydro-1H-naphthalene]-15-yl]-3-(oxan-4-yl)urea], the Ki in experiment [1] is above 1 nM.
